Source: patent publication US20210322507A1, “GENOTYPE-DIRECTED LOCAL DELIVERY OF TARGETED THERAPEUTICS” (Massachusetts Institute of Technology, priority 2017, published 2021)

Assays:
[1] = given systemically; cited from earlier work
[2] = Pharmacokinetic analysis of GMX-1778 after oral gavage (plasma and brain, UPLC-ESI-MS); assay type: in vivo, SCID mice; settings: 250 mg/kg oral gavage
Procedure: GMX-1778 was dissolved in 20% captisol (CyDex) and administered by oral gavage to 6-7 week old female SCID mice at a dose of 250 mg/kg. Vehicle treated animals received similar volume of 5% dextrose prepared in 20% captisol by oral gavage. GMX-1778 treated animals were sacrificed at 30 minutes, 2 hours, 6 hours and 24 hours following treatment. Blood was collected by cardiac puncture and centrifuged at 6000 g for 5 minutes. The brain was homogenized in 3 volumes of PBS with 5% bovine serum albumin (Sigma-Aldrich). GMX-1778 was then extracted into the organic phase by a modified protocol described previously^31. Briefly, 25 μL plasma or 100 μL brain homogenate was added to 10 μL FK-866 (250 ng/mL prepared in methanol). Then, 800 μL ethyl acetate was added and the sample was vortexed and mixed overnight. The sample was then centrifuged at 3000 rpm for 10 minutes and 600 μL supernatant was transferred to a new tube. The sample was dried overnight and reconstituted in 200 μL acetonitrile. Stock solutions of GMX-1778 and an internal standard FK-866 were prepared in acetonitrile at a concentration of 500 μg/mL. A10-point calibration curve ranging from 5 to 5000 ng/mL was prepared. Quality control samples were prepared by a similar procedure using an independent stock solution at three concentrations (25, 250, and 2500 ng/mL). For analysis, 2.5 μL sample was injected on the UPLC-ESI-MS system.
Ultra-performance LC (UPLC) separation was carried out on a Waters UPLC aligned with a Waters Xevo TQ-SMS mass spectrometer (Waters Ltd.). MassLynx 4.1 software was used for data acquisition and analysis. LC separation was performed on an Acquity UPLC High Strength Silica Trifunctional C18 (50 mm×2.1 mm; particle size, 1.8 μm) at 50° C. The mobile phase consisted of acetonitrile, 0.1% formic acid, 10 mM ammonium formate solution flowed at a rate of 0.6 mL/minute using a time and solvent gradient composition. The initial mobile phase composition (100%) was held for 1.0 minutes, and then changed to 20% over the next 0.25 minutes. […]

[3] = Systemic toxicity analysis of oral GMX-1778; assay type: in vivo, SCID mice
Procedure: Adult SCID female mice of 6-7 weeks were administered GMX-1778 daily for 5 days by oral gavage (250 mg/kg). Body weights were recorded prior to administration and at the end of the study. Blood samples were analyzed for complete blood count by HemaTrue (Heska Lab Systems) and chemistry panel by DriChem (Heska Lab Systems). Liver and heart were fixed in formalin and analyzed for histologic toxicity by hematoxylin and eosin (H&E) staining. Eyes were removed by enucleation and placed in Davidson's fixative for 24 hours prior to formalin and subsequently analyzed for toxicity on H&E slides.

For `O=C(/C=C/c1cccnc1)NCCCCC1CCN(C(=O)c2ccccc2)CC1` [FK866], the “Blood-brain barrier penetration / brain accumulation” value [1] is listed as “does not measurably accumulate in the brain parenchyma”.
In the case of `N#CN=C(NCCCCCCOc1ccc(Cl)cc1)Nc1ccncc1` [GMX-1778], the “Detectability of drug in brain within 24 hours” value ([2]; 24 hours) is reported as “no longer detectable”, the “Maximum (peak) drug concentration in brain” value ([2]; SCID mice, at 2 hours) is reported as 3.0 ± 1.5 µM and the “Maximum (peak) drug concentration in plasma” value ([2]; SCID mice, at 2 hours) is reported as 18.0 ± 3.6 µM. For the same compound, the “Liver histology (H&E)” value ([3]; 250 mg/kg oral GMX-1778) was “eosinophilic cholangitis”, the “Hemoglobin (anemia)” value ([3]; 250 mg/kg oral daily for 5 days, control 9.2±0.5 g/dL) was 6.7 ± 0.8 g/dL and the “Uremia (chemistry panel)” value ([3]; 250 mg/kg oral daily for 5 days, control 15±0.5 mg/dL) was 20.5 ± 1.9 mg/dL. The “Body weight after administration (weight loss)” value ([3]; 250 mg/kg oral daily for 5 days, control dextrose 21.8±0.6 g) was 17.9 ± 1.1 g and the “Blood-brain barrier penetration / brain accumulation” value [1] was “partially blood-brain barrier penetrant”.
